Measured values: patent US20240300980A1, “HETEROCYCLIC COMPOUNDS AS KRAS INHIBITOR, AND PREPARATION THEREFOR AND USE THEREOF IN TREATMENT” (SHANGHAI KECHOW PHARMA, INC., priority 2021, published 2024)
Where two headings read alike, the source gives them in different places.

Test system: AGS cells (KRAS^G12D)
Assay: Detection of cell proliferation in vitro by MTT/MTS method (cell activity experiment)
Assay type: cell-based
Settings: AGS cells, MTT/MTS, 3 days of drug treatment, read-out: AGS IC50
Method: The above cells were cultured in a complete medium containing 10% fetal bovine serum, 100 IU/mL penicillin and 100 jag/mL streptomycin, in the aseptic incubator with 95% relative humidity and 5% CO2 concentration.
2. Reagents: F12K, D-PBS, FBS, Penicillin Streptomycin, Tryple, MTT (5 mg/mL)
Appropriate amount of compound powder was weighed in a 1.5 mL centrifuge tube, then the corresponding volume of dimethyl sulfoxide (DMSO) was added to form a 20 mM reserve solution. The solution was packed separately and stored in a refrigerator at −20° C. away from light.
The cells were inoculated in a cell culture bottle, added an appropriate amount of complete medium, and cultured in a sterile incubator. When the degree of cell confluence reached more than 80%, subculture was carried out.
The adherent cells in logarithmic growth phase were digested by trypsin or the suspension cells were collected by centrifugation and counted. 90 μL cell suspension was inoculated into 96-well plate according to the cell inoculation density of 1000 cells per well, and 10 μL of 10-fold final concentration compound diluted by culture medium was added 24 hours later. Compared with the hole with the same volume of 5% DMSO as control, the final concentration of DMSO was 0.5%. After 3 days of drug treatment, the cell viability was detected by MTT. The specific methods are as follows: 10 μL MTT per well was added into the incubator for 4 hours, the supernatant was discarded and 150 μL DMSO was added to dissolve the crystal methylazan, and the absorbance of 490 nm was detected by enzyme labeling instrument, or 10 μL MITS per well was added to the incubator for 4 hours, and […] absorbance was detected directly by enzyme labeling instrument. GraphPad Prism 6 software makes dose-effect curve and calculates IC50.

IC50	SMILES	IC50 (Homo sapiens, AGS, 72 h)
–	Oc1cc2c(c(-c3ncc4c(N5C[C@H]6CC[C@@H](C5)N6)nc(OC[C@@]56CCCN5C[C@H](F)C6)nc4c3F)c1)C(C1CC1)CC2 (stereo partly drawn) [Example 267, 7-(4-((1R,5S)-3,8-diazabicyclo[3.2.1]octan-3-yl)-8-fluoro-2-(((2R,7aS)-2-fluorotetrahydro-1H-pyrrolizin-7a(5H)-yl)methoxy)pyrido[4,3-d]pyrimidin-7-yl)-1-cyclopropyl-2,3-dihydro-1H-inden-5-ol]	1050 nM
–	Oc1cc(-c2cnc3c(N4C[C@H]5CC[C@@H](C4)N5)nc(OC[C@@]45CCCN4C[C@H](F)C5)nc3c2)c2c(F)c(F)ccc2c1 [Example 199, 4-(4-((1R,5S)-3,8-diazabicyclo[3.2.1]octan-3-yl)-2-(((2R,7aS)-2-fluorotetrahydro-1H-pyrrolizin-7a(5H)-yl)methoxy)pyrido[3,2-d]pyrimidin-7-yl)-5,6-difluoronaphthalen-2-ol]	> 2500 nM
–	Nc1cc2ccccc2c(-c2ncc3c(N4C[C@H]5CC[C@@H](C4)N5)nc(OCC4(CN5CCCC5)CC4)nc3c2F)n1 [Example 7, 1-(4-((1R,5S)-3,8-diazabicyclo[3.2.1]octan-3-yl)-8-fluoro-2-((1-(pyrrolidin-1-ylmethyl)cyclopropyl)methoxy)pyrido[4,3-d]pyrimidin-7-yl)isoquinolin-3-amine]	2580 nM
–	CC12CC1CCc1cc(O)cc(-c3ccc4c(N5C[C@H]6CC[C@@H](C5)N6)nc(OC[C@@]56CCCN5C[C@H](F)C6)nc4c3F)c12 (stereo partly drawn) [Example 281, 7-(4-((1R,5S)-3,8-diazabicyclo[3.2.1]octan-3-yl)-8-fluoro-2-(((2R,7aS)-2-fluorotetrahydro-1H-pyrrolizin-7a(5H)-yl)methoxy)quinazolin-7-yl)-7b-methyl-1a, 2,3,7b-tetrahydro-1H-cyclopropa[a]naphthalen-5-ol]	537 nM
–	CC1CCCc2cc(O)cc(-c3ccc4c(N5C[C@H]6CC[C@@H](C5)N6)nc(OC[C@@]56CCCN5C[C@H](F)C6)nc4c3F)c21 (stereo partly drawn) [Example 282, 4-(4-((1R,5S)-3,8-diazabicyclo[3.2.1]octan-3-yl)-8-fluoro-2-(((2R,7aS)-2-fluorotetrahydro-1H-pyrrolizin-7a(5H)-yl)methoxy)quinazolin-7-yl)-5-methyl-5,6,7,8-tetrahydronaphthalen-2-ol]	15 nM
212 nM	C#Cc1c(F)ccc2cc(O)cc(-c3cc4nc(OC[C@@]56CCCN5C[C@H](F)C6)nc(N5C[C@H]6CC[C@@H](C5)N6)c4c4occc34)c12 [Example 384, 4-(9-((2R,5S)-3,8-diazabicyclo[3.2.1]octan-3-yl)-7-(((2R,7aS)-2-fluorotetrahydro-1H-pyrrolizin-7a(5H)-yl)methoxy)furo[2,3-f]quinazolin-4-yl)-5-ethynyl-6-fluoronaphthalen-2-ol]	–
–	CC1Cc2cc(O)cc(-c3ncc4c(N5C[C@H]6CC[C@@H](C5)N6)nc(OC[C@@]56CCCN5C[C@H](F)C6)nc4c3F)c2C1 (stereo partly drawn) [Example 266, 7-(4-((1R,5S)-3,8-diazabicyclo[3.2.1]octan-3-yl)-8-fluoro-2-(((2R,7aS)-2-fluorotetrahydro-1H-pyrrolizin-7a(5H)-yl)methoxy)pyrido[4,3-d]pyrimidin-7-yl)-2-methyl-2,3-dihydro-1H-inden-5-ol]	52 nM
–	O=S1(=O)[C@@H]2CC[C@H]1CN(c1nc(OC[C@@]34CCCN3C[C@H](F)C4)nc3c(F)c(-c4cc(O)cc5cccc(F)c45)ccc13)C2 [Example 169, (1R,5S)-3-(8-fluoro-7-(8-fluoro-3-hydroxynaphthalen-1-yl)-2-(((2R,7aS)-2-fluorotetrahydro-1H-pyrrolizin-7a(5H)-yl)methoxy)quinazolin-4-yl)-8-thia-3-azabicyclo[3.2.1]octane 8,8-dioxide]	> 2500 nM
> 2500 nM	C#Cc1c(F)ccc2cc(O)cc(-c3ccc4c(N5C[C@H]6CC[C@@H](C5)[C@@H]6C#N)nc(OC[C@@]56CCCN5C[C@H](F)C6)nc4c3F)c12 [Example 127, (1R,5S,8S)-3-(7-(8-ethynyl-7-fluoro-3-hydroxynaphthalen-1-yl)-8-fluoro-2-(((2R,7aS)-2-fluorotetrahydro-1H-pyrrolizin-7a(5H)-yl)methoxy)quinazolin-4-yl)-3-azabicyclo [3.2.1]octane-8-carbonitrile]	–
–	Oc1cc(-c2ncc3c(N4C[C@H]5CC[C@@H](C4)S5)nc(OC[C@@]45CCCN4C[C@H](F)C5)nc3c2F)c2c(F)c(F)ccc2c1 [Example 27, 4-(4-((1R,5S)-8-thia-3-azabicyclo[3.2.1]octan-3-yl)-8-fluoro-2-(((2R,7aS)-2-fluorotetrahydro-1H-pyrrolizin-7a(5H)-yl)methoxy)pyrido[4,3-d]pyrimidin-7-yl)-5,6-difluoronaphthalen-2-ol]	295 nM
–	CSC1CCCc2cc(O)cc(-c3ncc4c(N5C[C@H]6CC[C@@H](C5)N6)nc(OC[C@@]56CCCN5C[C@H](F)C6)nc4c3F)c21 (stereo partly drawn) [Example 426, 4-(4-((1R,5S)-3,8-diazabicyclo[3.2.1]octan-3-yl)-8-fluoro-2-(((2R,7aS)-2-fluorotetrahydro-1H-pyrrolizin-7a(5H)-yl)methoxy)pyrido[4,3-d]pyrimidin-7-yl)-5-(methylthio)-5,6,7,8-tetrahydronaphthalen-2-ol]	15 nM
–	Oc1cc(-c2ncc3c(N4C[C@H]5CC[C@@H](C4)N5)nc(OC[C@@]45CCCN4C[C@H](F)C5)nc3c2F)c2c(c1)C1CC1C2 (stereo partly drawn) [Example 245, 5-(4-((1R,5S)-3,8-diazabicyclo[3.2.1]octan-3-yl)-8-fluoro-2-(((2R,7aS)-2-fluorotetrahydro-1H-pyrrolizin-7a(5H)-yl)methoxy)pyrido[4,3-d]pyrimidin-7-yl)-1,1a,6,6a-tetrahydrocyclopropa[a]inden-3-ol]	25 nM
–	C#Cc1c(F)ccc2cc(O)cc(-c3ccc4c(N5C[C@H]6CC[C@@H](C5)N6)c(C#N)c(OC[C@@]56CCCN5C[C@H](F)C6)nc4c3)c12 [Example 171, 4-((1R,5S)-3,8-diazabicyclo[3.2.1]octan-3-yl)-7-(8-ethynyl-7-fluoro-3-hydroxynaphthalen-1-yl)-2-(((2R,7aS)-2-fluorotetrahydro-1H-pyrrolizin-7a(5H)-yl)methoxy)quinoline-3-carbonitrile]	1240 nM
–	Oc1cc(-c2ncc3c(C4C[C@H]5CC[C@@H](C4)N5)nc(OC[C@@]45CCCN4C[C@H](F)C5)nc3c2F)c2c(F)c(F)ccc2c1 (stereo partly drawn) [Example 78, 4-(4-((1R,5S)-8-azabicyclo[3.2.1]octan-3-yl)-8-fluoro-2-(((2R,7aS)-2-fluorotetrahydro-1H-pyrrolizin-7a(5H)-yl)methoxy)pyrido[4,3-d]pyrimidin-7-yl)-5,6-difluoronaphthalen-2-ol]	> 2500 nM
–	Oc1cc(-c2ccc3c(N4C[C@H]5CC[C@@H](C4)N5)nc(OCC4(CN5CCCC5)CC4)nc3c2F)c2c(F)c(F)ccc2c1 [Example 101, 4-(4-((1R,5S)-3,8-diazabicyclo[3.2.1]octan-3-yl)-8-fluoro-2-((1-(pyrrolidin-1-ylmethyl)cyclopropyl)methoxy)quinazolin-7-yl)-5,6-difluoronaphthalen-2-ol]	9.4 nM
–	C#Cc1c(F)ccc2cc(O)cc(-c3ncc4c(N5C[C@H]6CC[C@@H](C5)N6)nc(OCC56CCN(C)C5COC6)nc4c3F)c12 (stereo partly drawn) [Example 75, 4-(4-((1R,5S)-3,8-diazabicyclo[3.2.1]octan-3-yl)-8-fluoro-2-((1-methyltetrahydro-1H-furo[3,4-b]pyrrol-3a(4H)-yl)methoxy)pyrido[4,3-d]pyrimidin-7-yl)-5-ethynyl-6-fluoronaphthalen-2-ol]	> 2500 nM
